According to article PMC9024893, “1,2,4-Trioxolane and 1,2,4,5-Tetraoxane Endoperoxides against Old-World Leishmania Parasites: In Vitro Activity and Mode of Action” (Pharmaceuticals, 2022):
Where two headings read alike, the source gives them in different places.

Legend:
[1] = tested on: L. infantum promastigotes; assay: Flow cytometry detection of phosphatidylserine externalization (Annexin V/PI); type: cell-based, Leishmania infantum; details: 2 × IC50, 48 h, mean ± SEM
Description: (§1) The L. infantum strain (MHOM/PT/1988/IMT151) was chosen for the cytometry analysis and promastigotes at a concentration of 1 × 10^7 parasites/mL were tested against the three compounds evaluated in the intracellular amastigotes assay (LC132, LC137 and LC138). Flow cytometry analysis were performed in a CytoFlex flow cytometer (Beckman Coulter), at an excitation wavelength of 488 nm (blue laser). Data acquisition were collected and registered using channels FL1 (flurescein isothiocyanate, FITC) with a BP filter (525 ± 40 nm) for Fluorescein and FL2 (IP) with a BP filter (570 ± 20 nm) for propidium iodide (PI) and 10,000 total events per sample were analysed using CytExpert v2.0.0.153 software. Samples were analysed in triplicates and two to three independent experiments were performed. Values are expressed as a percentage of cells for a given marker, relatively to the number of cells analysed ± standard error of mean (SEM).
To distinguish apoptotic cell death from necrotic cell death, cells were counterstained with PI, a non-permeable stain with affinity for nucleic acids, as it selectively enters necrotic cells. […] After adding 400 μL of 1 × Binding Buffer, samples were analysed in Cytoflex flow cytometer. Annexin V-FITC and PI were measured in FL1 and FL2 channels, respectively. […]

[2] = Cytotoxicity assay (MTT), J774A.1 cell line; type: cell-based; details: mouse
Description: Adherent BALB/c mouse macrophage cell line J774A.1 (ATCC® TIB 67™) and suspension human acute monocytic leukemic cell line THP-1 (ATCC® TIB-202™) were purchased from DSMZ, Germany were cultured and maintained in DMEM medium (Gibco) and RPMI 1640 (Sigma), respectively, supplemented with 10% FBS, 1% penicillin-streptomycin (Sigma) and L-glutamine 200 mM (Sigma), at 37 °C, 5% CO2.
Cell lines J774A.1 and THP-1 were used to estimate CC50 of the peroxides. Cells were plated in 96-well flat bottom culture plates (VWR) at 5 × 10^5 cells/mL. The monocytic cell line THP-1 was differentiated in RPMI medium with phorbol myristate acetate (PMA) (25 ng/mL; Sigma) for 24 h, followed by a washing step with RPMI medium. Six serial concentrations of the compounds (Table 3) were added in four replicates and the plates were incubated at 37 °C ± 1 °C, 5% CO2 for 48 h. An untreated control (cells in DMEM or RPMI medium plus 0.5% DMSO as vehicle) and blank (medium alone) were plated out in quadruplicate. After the incubation period, 20 µL/well of MTT [3-(4,5-dimethylthiazol-2-yl)-2,5-diphenyltetrazolium bromide] was added to a final concentration of 5 µg/mL in 1× phosphate-buffered saline (PBS, Merck), with an additional 4 h incubation at 36 °C, as previously described. The formazan salts were resuspended in 2-propanol (Merck) and the cell viability was determined by measuring absorbance with a Synergy ™HTX Multi Mode Microplate Reader at 595 nm (Dynex Technologies). The CC50 values were calculated fitting the data as a non-linear regression with variable slope using a dose-response inhibitory model, in the GraphPad Prism V 8.0 program. Each compound was tested in three independent assays.

[3] = tested on: L. infantum promastigotes; assay: Flow cytometry analysis of mitochondrial membrane potential (JC-1); type: cell-based, Leishmania infantum; details: 24 h
Description: as §1
Mitochondrial damage was evaluated through the analysis of the mitochondrial membrane potential with MitoProbe™ JC-1 Assay Kit for Flow Cytometry (Molecular Probes, Invitrogen). Treated L. infantum promastigotes were incubated with IC50 and 2 × IC50 of the tested compounds and amphotericin B for 24 h, at 24 °C ± 1 °C. […] Cells were analysed by flow cytometry. […]

[4] = tested on: L. infantum promastigotes; assay: Promastigotes DNA fragmentation (agarose gel); type: cell-based, Leishmania infantum; details: IC50 concentrations, 24 h
Description: 2 mM H2O2 was used as DNA damage inductor and non-treated cells were used as control. After centrifugation (10 min, 800× g) DNA was extracted using a commercial extraction kit (High Template DNA Preparation Kit, Roche, Germany), according to the manufacturer’s instructions.

[5] = tested on: L. infantum promastigotes; assay: Flow cytometry detection of reactive oxygen species (CM-H2DCFDA); type: cell-based, Leishmania infantum; details: 2 × IC50, 5 h
Description: as §1
For the detection of reactive oxygen species (ROS), a cell permeable probe CM-H2DCFDA (5 µg/mL Molecular Probes, Invitrogen) was used. Briefly, promastigotes were incubated with IC50 and 2 × IC50 of the tested compounds and amphotericin B for 5 h and 24 h, at 24 °C. […] Parasites were resuspended in normal medium (M199 medium) and fluorescence was measured by flow cytometry (blue laser), and the signals registered in the FL1/FITC channel.

SMILES | late apoptosis (Annexin+/PI+) cell population [1] [%] | CC50 at 48 h [2] [µM] | population percentage of JC-1 aggregates ([3]; 2 × IC50 concentration) [%] | population percentage of JC-1 aggregates ([3]; IC50 concentration) [%] | CC50 at 48 h ([2]; J774A.1 macrophage cells, 48 h incubation, MTT, read-out: CC50 ± SD, J774A.1 Cell Line) [µM] | genomic DNA fragmentation [4] | ROS levels (FITC+), early phase of exposure [5]
C[C@@H]1[C@H](O)[C@@H](C)/C=C/C=C/C=C/C=C/C=C/C=C/C=C/[C@H](O[C@@H]2O[C@H](C)[C@@H](O)[C@H](N)[C@@H]2O)C[C@@H]2O[C@](O)(C[C@@H](O)C[C@@H](O)[C@H](O)CC[C@@H](O)C[C@@H](O)CC(=O)O[C@H]1C)C[C@H](O)[C@H]2C(=O)O [AmB, amphotericin B, reference compound] | 17.5 ± 0.9 | 71.9 ± 5.4 | 69.1 | 64.9 |  |  | 
CCOC(=O)C1CCC2(CC1)OOC1(OO2)C2CC3CC(C2)CC1C3 (centres unmarked) [LC138] | 20.5 ± 4.2 |  |  |  | 528 ± 54 | did not produce DNA fragmentation | slight increase
